Data taken from the NIST ThermoML archive (doi:10.1016/j.jct.2015.11.023).

Legend:
[1] = wn = mass fraction of the nth substance listed; conditions: for surface tension liquid-gas: Maximal bubble pressure; for mass density: 100 kPa, Liquid, Vibrating tube method
[2] = refractive index (Na D-line) (dimensionless); wn = mass fraction of the nth substance listed; conditions: 100 kPa, Liquid, Standard Abbe refractometry

CCCCC[n+]1ccccc1.N#C[N-]C#N [1-pentylpyridinium dicyanamide] + O
Conditions	mass density [kg/m3]	refractive index	surface tension liquid-gas [mN/m]
[1], 303.15 K, w2 = 0.00124	1049.94	–	–
[1], 303.15 K, w2 = 0.00159	–	–	53.3
[1], 303.15 K, w2 = 0.00269	1049.85	–	–
[1], 303.15 K, w2 = 0.00309	–	–	53.7
[1], 303.15 K, w2 = 0.00423	1049.72	–	–
[1], 303.15 K, w2 = 0.00463	–	–	54
[1], 303.15 K, w2 = 0.00567	1049.59	–	–
[1], 303.15 K, w2 = 0.00611	–	–	54.3
[1], 303.15 K, w2 = 0.00714	1049.48	–	–
[1], 303.15 K, w2 = 0.00762	–	–	54.6
[1], 308.15 K, w2 = 0.00124	1046.92	–	–
[1], 308.15 K, w2 = 0.00159	–	–	53.1
[1], 308.15 K, w2 = 0.00269	1046.83	–	–
[1], 308.15 K, w2 = 0.00309	–	–	53.3
[1], 308.15 K, w2 = 0.00423	1046.7	–	–
[1], 308.15 K, w2 = 0.00463	–	–	53.7
[1], 308.15 K, w2 = 0.00567	1046.57	–	–
[1], 308.15 K, w2 = 0.00611	–	–	54
[1], 308.15 K, w2 = 0.00714	1046.45	–	–
[1], 308.15 K, w2 = 0.00762	–	–	54.3
[1], 313.15 K, w2 = 0.00124	1043.92	–	–
[1], 313.15 K, w2 = 0.00159	–	–	52.8
[1], 313.15 K, w2 = 0.00269	1043.82	–	–
[1], 313.15 K, w2 = 0.00309	–	–	53
[1], 313.15 K, w2 = 0.00423	1043.69	–	–
[1], 313.15 K, w2 = 0.00463	–	–	53.4
[1], 313.15 K, w2 = 0.00567	1043.56	–	–
[1], 313.15 K, w2 = 0.00611	–	–	53.7
[1], 313.15 K, w2 = 0.00714	1043.44	–	–
[1], 313.15 K, w2 = 0.00762	–	–	54
[1], 318.15 K, w2 = 0.00124	1040.93	–	–
[1], 318.15 K, w2 = 0.00159	–	–	52.4
[1], 318.15 K, w2 = 0.00269	1040.82	–	–
[1], 318.15 K, w2 = 0.00309	–	–	52.7
[1], 318.15 K, w2 = 0.00423	1040.7	–	–
[1], 318.15 K, w2 = 0.00463	–	–	53
[1], 318.15 K, w2 = 0.00567	1040.56	–	–
[1], 318.15 K, w2 = 0.00611	–	–	53.3
[1], 318.15 K, w2 = 0.00714	1040.44	–	–
[1], 318.15 K, w2 = 0.00762	–	–	53.6
[1], 323.15 K, w2 = 0.00124	1037.95	–	–
[1], 323.15 K, w2 = 0.00159	–	–	52.1
[1], 323.15 K, w2 = 0.00269	1037.84	–	–
[1], 323.15 K, w2 = 0.00309	–	–	52.3
[1], 323.15 K, w2 = 0.00423	1037.72	–	–
[1], 323.15 K, w2 = 0.00463	–	–	52.7
[1], 323.15 K, w2 = 0.00567	1037.57	–	–
[1], 323.15 K, w2 = 0.00611	–	–	53
[1], 323.15 K, w2 = 0.00714	1037.45	–	–
[1], 323.15 K, w2 = 0.00762	–	–	53.3
[1], 328.15 K, w2 = 0.00124	1034.99	–	–
[1], 328.15 K, w2 = 0.00159	–	–	51.8
[1], 328.15 K, w2 = 0.00269	1034.88	–	–
[1], 328.15 K, w2 = 0.00309	–	–	52
[1], 328.15 K, w2 = 0.00423	1034.75	–	–
[1], 328.15 K, w2 = 0.00463	–	–	52.4
[1], 328.15 K, w2 = 0.00567	1034.61	–	–
[1], 328.15 K, w2 = 0.00611	–	–	52.7
[1], 328.15 K, w2 = 0.00714	1034.48	–	–
[1], 328.15 K, w2 = 0.00762	–	–	53
[1], 333.15 K, w2 = 0.00124	1032.05	–	–
[1], 333.15 K, w2 = 0.00159	–	–	51.5
[1], 333.15 K, w2 = 0.00269	1031.93	–	–
[1], 333.15 K, w2 = 0.00309	–	–	51.8
[1], 333.15 K, w2 = 0.00423	1031.8	–	–
[1], 333.15 K, w2 = 0.00463	–	–	52.1
[1], 333.15 K, w2 = 0.00567	1031.65	–	–
[1], 333.15 K, w2 = 0.00611	–	–	52.4
[1], 333.15 K, w2 = 0.00714	1031.52	–	–
[1], 333.15 K, w2 = 0.00762	–	–	52.7
[1], 338.15 K, w2 = 0.00124	1029.11	–	–
[1], 338.15 K, w2 = 0.00159	–	–	51.3
[1], 338.15 K, w2 = 0.00269	1029	–	–
[1], 338.15 K, w2 = 0.00309	–	–	51.6
[1], 338.15 K, w2 = 0.00423	1028.86	–	–
[1], 338.15 K, w2 = 0.00463	–	–	51.9
[1], 338.15 K, w2 = 0.00567	1028.71	–	–
[1], 338.15 K, w2 = 0.00611	–	–	52.2
[1], 338.15 K, w2 = 0.00714	1028.58	–	–
[1], 338.15 K, w2 = 0.00762	–	–	52.4
[2], 303.15 K, w2 = 0.00159	–	1.5285	–
[2], 303.15 K, w2 = 0.00322	–	1.5282	–
[2], 303.15 K, w2 = 0.00513	–	1.5279	–
[2], 303.15 K, w2 = 0.00661	–	1.5277	–
[2], 303.15 K, w2 = 0.00821	–	1.5274	–
[2], 308.15 K, w2 = 0.00159	–	1.527	–
[2], 308.15 K, w2 = 0.00322	–	1.5268	–
[2], 308.15 K, w2 = 0.00513	–	1.5265	–
[2], 308.15 K, w2 = 0.00661	–	1.5263	–
[2], 308.15 K, w2 = 0.00821	–	1.5261	–
[2], 313.15 K, w2 = 0.00159	–	1.5255	–
[2], 313.15 K, w2 = 0.00322	–	1.5253	–
[2], 313.15 K, w2 = 0.00513	–	1.525	–
[2], 313.15 K, w2 = 0.00661	–	1.5248	–
[2], 313.15 K, w2 = 0.00821	–	1.5245	–
[2], 318.15 K, w2 = 0.00159	–	1.5241	–
[2], 318.15 K, w2 = 0.00322	–	1.5239	–
[2], 318.15 K, w2 = 0.00513	–	1.5236	–
[2], 318.15 K, w2 = 0.00661	–	1.5234	–
[2], 318.15 K, w2 = 0.00821	–	1.5232	–
[2], 323.15 K, w2 = 0.00159	–	1.5228	–
[2], 323.15 K, w2 = 0.00322	–	1.5225	–
[2], 323.15 K, w2 = 0.00513	–	1.5222	–
[2], 323.15 K, w2 = 0.00661	–	1.522	–
[2], 323.15 K, w2 = 0.00821	–	1.5217	–
[2], 328.15 K, w2 = 0.00159	–	1.521	–
[2], 328.15 K, w2 = 0.00322	–	1.5208	–
[2], 328.15 K, w2 = 0.00513	–	1.5205	–
[2], 328.15 K, w2 = 0.00661	–	1.5203	–
[2], 328.15 K, w2 = 0.00821	–	1.5201	–
[2], 333.15 K, w2 = 0.00159	–	1.5192	–
[2], 333.15 K, w2 = 0.00322	–	1.519	–
[2], 333.15 K, w2 = 0.00513	–	1.5188	–
[2], 333.15 K, w2 = 0.00661	–	1.5186	–
[2], 333.15 K, w2 = 0.00821	–	1.5184	–
[2], 338.15 K, w2 = 0.00159	–	1.5177	–
[2], 338.15 K, w2 = 0.00322	–	1.5175	–
[2], 338.15 K, w2 = 0.00513	–	1.5172	–
[2], 338.15 K, w2 = 0.00661	–	1.517	–
[2], 338.15 K, w2 = 0.00821	–	1.5168	–
